The results in this text go back to US20240041902A1, “COMPOSITIONS AND METHODS FOR THE TREATMENT OF UROTHELIAL CANCER” (The State of Israel, Ministry of Agriculture & Rural …, priority 2020, published 2024).

Series [1] deals with T24 cells. The series is described as follows: Cytoskeleton (F-actin) staining, confocal. It counts as cell-based, human. The note with it: 24 hours; CBC+THC 8.6+1.4, CBD 10 μg/mL. The procedure: Cytoskeleton staining—T24 cell were seeded on glass bottom cell culture dishes and fixed with 3.7% formaldehyde solution and permeabilized with 0.1% Triton X-100 at room temperature. Fixed cells were blocked in Phosphate Buffered Saline (PBS) containing 1% bovine serum albumin. For actin and nuclear staining cells were incubated with EasyProbes ActinRed 555 Stain, and Hoechst, respectively. Image acquisition was effected using a Leica SP8 laser scanning microscope (Wetzlar, Germany), equipped with a 405 and 552 nm solid state lasers, HCX PL APO CS 10×/0.40 or HC PL APO CS 60×/1.2 water immersion objectives (Leica, Wetzlar, Germany) and Leica Application Suite X software (Wetzlar, Germany). Hoechst and ActinRed 555 emission signals were detected with PMT and HyD (hybrid) detectors in ranges of 415-490 and 565-660 nm, respectively. At least 3 images were captured from each slide, and experiments were repeated 4 times.

In series [2] the test system is T24 cells. Nature of the series: Apoptosis assay (Annexin V-FITC and PI, FACS). Format: cell-based, human. The note with it: 48 hours; for cell apoptosis: CBC+THC 17.2+2.8, CBD 15, MMC 8 μg/mL, control 46.2%. The procedure:
Apoptosis assay and cell cycle analysis—T24 cells were treated with cannabis compounds or with methanol as a vehicle control. Cell cycle was determined at 24 h and apoptosis was determined at 48 h post-treatment. Staining and detection followed manufacturer instructions. Briefly, for the apoptosis assay, the MEBCYTO Apoptosis Kit with Annexin V-FITC and PI (MBL, Enco, 4700) was used. Cells were seeded in culture 6-wells plates, at density of 5×10^5 cells per well in McCoy's 5A (for T24 a cells) or in RPMI (for HTB-9 cells). The following day, media was replaced with new media containing treatment or methanol control. Cells were then incubated for 24 or 48 h at 37° C. in a humidified 5% CO2 95% air atmosphere. Following incubation, cells were harvested and collected separately. Tubes were centrifuged for 2 min at 900 g and cell pellets were resuspended and washed twice with 1 mL of PBS. The cells in each sample were resuspended in 85 μL of Annexin binding buffer. Cells were stained using 10 μL of Annexin V-FITC solution and 5 μL of propidium iodide (PI) working solution followed by 15 min incubation in the dark at room temperature. Then 400 μL of Annexin V binding buffer were added to each tube and flow cytometry was performed using a FORTESA flow cytometer (FACS). Cells were considered to be apoptotic if they were Annexin V+/PI− (early apoptotic) or Annexin V+/PI+ (late apoptotic). Live cells were defined as Annexin V−/PI−, and Annexin V−/PI+ as necrotic.
Cell proliferation assay—XTT assay was carried on T24 and HTB-9 cells. 1×10^4 cells/well were seeded in 96-well plates. […] MMC was used as a positive control. […] Absorbance was recorded by a Synergy 111 hybrid reader photometer (BioTek) at 490 nm with 650 nm of reference wavelength. […] The cell cycle was determined at 24 hours and apoptosis was determined at 48 hours following treatment. […] Then 200 μL of PBS was added to each tube and the cells were analyzed using FACS.

For series [3], the system named is T24 cells. Nature of the series: Cell migration scratch assay. It counts as cell-based, human. The note with it: sub-lethal: CBD 10, CBC+THC 8.6+1.4, MMC 4, CBC 10, THC 10 μg/mL; vs control. The procedure: The scratch area, indicated by the cells that migrated to the scratch at time x, was calculated as the percentage of the scratch area at time x from time 0: […]

The subject of series [4] is CB2 receptor (CNR2). The series is described as follows: qRT-PCR of CB2 receptor RNA level in T24 cells. Format: cell-based, human. The settings on record: 6 hours; CBC+THC 11.2+1.8 μg/mL or CBD 9.2 μg/mL; relative to control, HPRT1 reference. The procedure: (§1) Quantitative real-time (qRT) PCR—qRT PCR was carried out as described in [34]. Briefly, T24 cells were treated with cannabis compounds or methanol as a vehicle control for 6 h. Cells were then harvested and total RNA was isolated and reverse-transcribed. The expression of each target gene was normalized to the expression of Hypoxanthine Phosphoribosyltransferase 1 (HPRT1; geneID 3251) mRNA as the 2^−ΔΔCt and is presented as the ratio of the target gene to HPRT1 mRNA, expressed as 2^−ΔCt, where Ct is the threshold cycle and ΔCt=Ct Target gene—Ct HPRT1. Experiments were repeated three times. The primers were: for CB1 (CNR1; geneID 1268) forward 5′-[…]-3′ (SEQ ID NO: 1) and reverse 5′-[…]-3′ (SEQ ID NO: 2); for CB2 (CNR2; geneID 1269) forward 5′-[…]-3′ (SEQ ID NO: 3) and reverse 5′-[…]-3′ (SEQ ID NO: 4).
Background: Quantitative PCR measures a nucleic acid by following its amplification.

Series [5] relates to T24 cells. The series is described as follows: Cell cycle analysis (PI staining, FACS). It counts as cell-based, human. The note with it: 24 hours. The procedure: For cell cycle analysis, cells were seeded in 6-wells culture plates at a concentration of 5×10^5 cells per well in McCoy (for T24 cells). The following day, media was replaced with new media containing treatments or methanol control. Cells were then incubated for 24 h at 37° C. in a humidified 5% CO2, 95% air atmosphere. Following 24 h of incubation, media was replaced with new media containing treatment or methanol control. Cells from each well were then harvested and collected separately and centrifuged for 2 min at 900 g. The cell pellet was washed once with 1 mL of PBS and fixed with 70% cold ethanol at 4° C. for at least 1 h. The fixed cells were pelleted out and washed twice with 1 mL of PBS. The cell pellet was then stained by re-suspending in 250 μL of PI solution (50 μg/mL) containing RNase A (100 μg/mL) for 30 min in the dark. Following, 200 μL of PBS were added to each tube and cells were analyzed using FACS.
Cell proliferation assay—XTT assay was carried on T24 and HTB-9 cells. 1×10^4 cells/well were seeded in 96-well plates. […] MMC was used as a positive control. XTT reagent (2,3,-bis (2-methoxy-4-nitro-5-sulfophenyl)-5-[(phenylamino)-carbonyl]-2H-tetrazolium inner salt) was added for 2 h at 37° C. in a humidified atmosphere of 5% CO2 to 95% air. Absorbance was recorded by a Synergy 111 hybrid reader photometer (BioTek) at 490 nm with 650 nm of reference wavelength. Cell survival (% r, viability) was estimated using the equation: % cell survival=(A490−A650) of treatment/(A490−A650) of solvent control×100. A490 and A650 are the absorbencies of the XTT colorimetric reaction. […] Apoptosis assay and cell cycle analysis—T24 cells were treated with cannabis compounds or with methanol as vehicle control. The cell cycle was determined at 24 hours and apoptosis was determined at 48 hours following treatment. Staining and detection followed the manufacturer's instructions. […] Then 200 μL of PBS was added to each tube and the cells were analyzed using FACS.

Series [6] relates to CB1 receptor (CNR1). The series is described as follows: qRT-PCR of CB1 receptor RNA level in T24 cells. It counts as cell-based, human. The settings on record: 6 hours; CBC+THC 11.2+1.8 μg/mL or CBD 9.2 μg/mL; relative to control, HPRT1 reference. The procedure:
as §1

The test system of series [7] is T24 cells. Nature of the series: XTT viability of T24 cells with or without CB1/CB2 inverse agonist, TRPV1/TRPV2 antagonist or TRPA1 blocker. Format: cell-based, human. The note with it: CBD 13.8 μg/mL; inverse agonist 10 μM. The procedure: For quantification of phytocannabinoids by analytical HPLC, the standards were dissolved in methanol at various concentrations from 0-25 μg/mL.
Cell proliferation assay—XTT assay was carried out as described in [34], on T24 and HTB-9 cells. 1*10^4 cells/well were seeded in 96-wells plates, methanol was used as a vehicle control at the same concentration as the treatments. Mitomycin-C (MMC) was used as positive control. Cell viability was calculated relative to the vehicle control after subtracting blank.

Series [8] concerns E-cadherin. The series is described as follows: qRT-PCR of E-cadherin mRNA in T24 cells. Format: cell-based, human. The settings on record: 2 hours treatment, extracts 30, MMC 8 μg/mL. The source says:
[…] The RNA was reverse transcribed. The expression of each target gene was normalized to the expression of hypoxanthine phosphoribosyltransferase 1 (HPRT1; geneID 3251) mRNA as the 2^−66 ΔCt method that presents the differences ( ) in the threshold cycle (Ct) between the target gene and the HPRT1 gene. ΔCt=Ct target gene—Ct HPRT1. Experiments were repeated 4 times (4 biological repeats), with two more technical repeats. The primers were as follows:

The test system of series [9] is T24 cells. The series is described as follows: Transwell cell invasion assay. The settings on record: MMC 4 μg/mL, positive control.
Source text: A transwell assay, as described in [35], was used to determine cell invasion (n=3),
In series [10] the test system is N-cadherin. The series is described as follows: qRT-PCR of N-cadherin mRNA in T24 cells. It counts as cell-based, human. The note with it: 2 hours treatment, 2 hours after washout. The text has this:
[…] Cells were then harvested and total RNA was isolated. The RNA was reverse transcribed. The expression of each target gene was normalized to the expression of hypoxanthine phosphoribosyltransferase 1 (HPRT1; geneID 3251) mRNA as the 2^−66 ΔCt method that presents the differences ( ) in the threshold cycle (Ct) between the target gene and the HPRT1 gene. ΔCt=Ct target gene—Ct HPRT1. Experiments were repeated 4 times (4 biological repeats), with two more technical repeats. The primers were as follows:

The structures appear in SMILES notation.

As for `C=C(C)[C@@H]1CCC(C)=C[C@H]1c1c(O)cc(CCCCC)cc1O` [CBD, Cannabidiol], in series [1], the “F-actin filaments in the cell periphery” value is “induced accumulation of F-actin filaments in the cell periphery”. In addition, in [2], the cell apoptosis was found to be 81.7%. Moreover, the “cell migration into the scratch” value in [3] is “marked and significant reduction in the ability of the cells to migrate into the scratch”. The “CB2 receptor RNA level induction” value in [4] was found to be 2.32 fold. In addition, in [5] (CBD 15 μg/mL, insignificant increase, control 17.4%), the G2/M-phase cells turned out to be 38.3%. Moreover, in series [6], the “CB1 receptor RNA level induction” value stood at 1.35 fold. In addition, the “effect of CB1 and CB2 inverse agonists on CBD cytotoxicity” value in [7] is listed as “Only CB2 inverse agonist completely abolished cytotoxicity”.

As for `CO[C@@]12[C@H](COC(N)=O)C3=C(C(=O)C(C)=C(N)C3=O)N1C[C@@H]1N[C@@H]12` [MMC, Mitomycin-C], the E-cadherin expression entry is recorded as “reduced” in series [8] (2 hours after washout) and “significantly induced” in series [8] (6 hours after washout). The cell apoptosis in series [2] was 79.6%. In [2] (DQ 30, sCBD 30, MMC 8 μg/mL, control 1.69%), the cell necrosis is listed as 25.13%. In addition, the “reduction of cell invasion in comparison to control” value in series [9] is 43.7±4.8%. Further, the N-cadherin expression entry in [10] is “slightly reduced”. Besides, the G2/M-phase cells in [5] (DQ 30, sCBD 30, MMC 8 μg/mL) is given as 28.1%. For the same compound, the S-phase cells in [5] (DQ 30, sCBD 30, MMC 8 μg/mL, vehicle control 19.6%) came to 34.4%.
